Values joined by “and” are separate entries in the source; they are usually repeats but may differ in a detail not shown here. Equal entries are not always repeated. Inconclusive results and toxic doses are left out. Cut-off read from the data, not from the text of the source: active = T/C of 150% or more; inactive = T/C below 125%.
Tested on: L1210 leukemia ip in BDF1 mice, survival T/C
Test: NCI In Vivo Anticancer Drug Screen. Data for tumor model L1210 Leukemia (intraperitoneal) in B6D2F1 (BDF1) mice
Conditions: endpoint: mean survival time, higher = longer survival
In short: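 Transplantable tumor model; survival measured in treated vs vehicle control mice. Value = treated/control.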

[1] = dose: 100.0 mg/kg/injection, schedule: Q01DX009 (ip), vehicle: saline with Tween-80
[2] = dose: 100.0 mg/kg/injection, schedule: Q01DX001 (ip), vehicle: saline
[3] = dose: 200.0 mg/kg/injection, schedule: Q01DX001 (ip), vehicle: saline
[4] = dose: 400.0 mg/kg/injection, schedule: Q01DX001 (ip), vehicle: saline
[5] = dose: 100.0 mg/kg/injection, schedule: Q04DX003 (ip), vehicle: saline
[6] = dose: 200.0 mg/kg/injection, schedule: Q04DX003 (ip), vehicle: saline
[7] = dose: 400.0 mg/kg/injection, schedule: Q04DX003 (ip), vehicle: saline
[8] = dose: 100.0 mg/kg/injection, schedule: Q04DX003 (ip), vehicle: saline with Tween-80
[9] = dose: 200.0 mg/kg/injection, schedule: Q01DX009 (ip), vehicle: saline with Tween-80
[10] = dose: 400.0 mg/kg/injection, schedule: Q01DX009 (ip), vehicle: saline with Tween-80

Measured: T/C

CCc1cc2c(cc1C(=O)/C=C\C(=O)O)C(C)(C)CCC2(C)C
inactive: dose: 0.5 mg/kg/injection, schedule: Q01DX001 (ip), vehicle: saline 96 % of control | dose: 1.0 mg/kg/injection, schedule: Q01DX001 (ip), vehicle: saline 100 % of control | dose: 2.0 mg/kg/injection, schedule: Q01DX001 (ip), vehicle: saline 98 % of control | dose: 2.97 mg/kg/injection, schedule: Q01DX001 (ip), vehicle: saline 100 % of control | dose: 3.75 mg/kg/injection, schedule: Q01DX009 (ip), vehicle: saline with Tween-80 98 % of control | dose: 3.75 mg/kg/injection, schedule: Q04DX003 (ip), vehicle: acetone 101 % of control | dose: 4.5 mg/kg/injection, schedule: Q01DX001 (ip), vehicle: saline 104 % of control | dose: 6.75 mg/kg/injection, schedule: Q01DX001 (ip), vehicle: saline 104 % of control | dose: 7.5 mg/kg/injection, schedule: Q01DX009 (ip), vehicle: saline with Tween-80 94 % of control | dose: 7.5 mg/kg/injection, schedule: Q04DX003 (ip), vehicle: acetone 108 % of control | dose: 9.9 mg/kg/injection, schedule: Q01DX001 (ip), vehicle: saline 96 % of control | dose: 15.0 mg/kg/injection, schedule: Q01DX001 (ip), vehicle: saline 98 % of control | dose: 15.0 mg/kg/injection, schedule: Q04DX003 (ip), vehicle: acetone 98 % of control

O=C1CCCCc2cc(O)c([N+](=O)[O-])cc21
inactive: dose: 50.0 mg/kg/injection, schedule: Q01DX009 (ip), vehicle: saline with Tween-80 101 % of control | [1] 95 % of control

O=C(Nc1cccc(Cl)c1)OCC#CCN1CCCC1
inactive: dose: 5.0 mg/kg/injection, schedule: Q01DX001 (ip), vehicle: saline 105 % of control | dose: 9.0 mg/kg/injection, schedule: Q01DX001 (ip), vehicle: saline 95 % of control and 101 % of control | dose: 10.0 mg/kg/injection, schedule: Q01DX001 (ip), vehicle: saline 105 % of control | dose: 13.0 mg/kg/injection, schedule: Q01DX001 (ip), vehicle: saline 97 % of control and 104 % of control | dose: 20.0 mg/kg/injection, schedule: Q01DX001 (ip), vehicle: saline 98 % of control and 101 % of control | dose: 30.0 mg/kg/injection, schedule: Q01DX001 (ip), vehicle: saline 98 % of control and 101 % of control | dose: 40.0 mg/kg/injection, schedule: Q01DX001 (ip), vehicle: saline 101 % of control | dose: 80.0 mg/kg/injection, schedule: Q01DX001 (ip), vehicle: saline 111 % of control

CCN(CC)c1ccc(N=C2C=C(C(=O)Nc3ccc(S(C)(=O)=O)cc3)C(=O)c3ccccc32)c(C)c1
inactive: [2] 92 % of control | [3] 96 % of control | [4] 96 % of control

CNC(=O)c1cnc(SC)nc1N
inactive: dose: 50.0 mg/kg/injection, schedule: Q04DX003 (ip), vehicle: Klucel (hydroxypropylcellulose) (HPC) 103 % of control | dose: 100.0 mg/kg/injection, schedule: Q01DX001 (ip), vehicle: Klucel (hydroxypropylcellulose) (HPC) 103 % of control | dose: 100.0 mg/kg/injection, schedule: Q04DX003 (ip), vehicle: Klucel (hydroxypropylcellulose) (HPC) 101 % of control | dose: 200.0 mg/kg/injection, schedule: Q01DX001 (ip), vehicle: Klucel (hydroxypropylcellulose) (HPC) 100 % of control | dose: 200.0 mg/kg/injection, schedule: Q04DX003 (ip), vehicle: Klucel (hydroxypropylcellulose) (HPC) 111 % of control

O=C(NC(C(O)CO)C(O)C(O)CO)c1ccccc1 (centres undefined)
inactive: [5] 104 % of control | [6] 105 % of control | [7] 102 % of control

C#CCOCC1CNC(=O)O1 (centres undefined)
inactive: dose: 25.0 mg/kg/injection, schedule: Q01DX009 (ip), vehicle: saline 95 % of control | dose: 25.0 mg/kg/injection, schedule: Q04DX003 (ip), vehicle: saline 103 % of control | dose: 50.0 mg/kg/injection, schedule: Q01DX009 (ip), vehicle: saline 96 % of control | dose: 50.0 mg/kg/injection, schedule: Q04DX003 (ip), vehicle: saline 105 % of control | dose: 100.0 mg/kg/injection, schedule: Q01DX009 (ip), vehicle: saline 96 % of control | [5] 97 % of control | dose: 200.0 mg/kg/injection, schedule: Q01DX009 (ip), vehicle: saline 101 % of control | [6] 100 % of control | dose: 400.0 mg/kg/injection, schedule: Q01DX009 (ip), vehicle: saline 91 % of control | [7] 105 % of control

NC(N)=N/N=C\c1ccccc1/C=N/N=C(N)N
inactive: dose: 15.0 mg/kg/injection, schedule: Q01DX Z (ip), vehicle: saline 111 % of control | dose: 15.0 mg/kg/injection, schedule: Q01DX Z (oral), vehicle: saline 116 % of control | dose: 30.0 mg/kg/injection, schedule: Q01DX Z (ip), vehicle: saline 110 % of control | dose: 30.0 mg/kg/injection, schedule: Q01DX Z (oral), vehicle: saline 111 % of control | dose: 60.0 mg/kg/injection, schedule: Q01DX Z (oral), vehicle: saline 102 % of control | dose: 120.0 mg/kg/injection, schedule: Q01DX Z (oral), vehicle: saline 111 % of control

COc1ccc(C)cc1NC(=O)c1c(Br)c(Br)c(Br)c(Br)c1C(=O)O
inactive: dose: 100.0 mg/kg/injection, schedule: Q01DX009 (ip), vehicle: Klucel (hydroxypropylcellulose) (HPC) 98 % of control | dose: 200.0 mg/kg/injection, schedule: Q01DX009 (ip), vehicle: Klucel (hydroxypropylcellulose) (HPC) 92 % of control

COC(=O)/C=C/c1cccc([N+](=O)[O-])c1
inactive: [2] 100 % of control | [3] 100 % of control | [4] 100 % of control

c1ccc(COC2CN3CCC2CC3)cc1 (centres undefined)
inactive: dose: 25.0 mg/kg/injection, schedule: Q04DX003 (ip), vehicle: saline with Tween-80 91 % of control | dose: 50.0 mg/kg/injection, schedule: Q04DX003 (ip), vehicle: saline with Tween-80 95 % of control | [8] 90 % of control and 91 % of control

CNCCCNCC(Cc1ccccc1)c1ccccc1 (centres undefined)
inactive: dose: 100.0 mg/kg/injection, schedule: Q04DX002 (ip), vehicle: saline 86 % of control

CCOC(=O)C(C)C(C)(O)c1ccccc1 (centres undefined)
inactive: [1] 95 % of control | [9] 109 % of control | [10] 96 % of control

Cc1cccc(NC(=S)N2CCOCC2)c1
inactive: dose: 87.5 mg/kg/injection, schedule: Q01DX009 (ip), vehicle: Klucel (hydroxypropylcellulose) (HPC) 110 % of control | dose: 175.0 mg/kg/injection, schedule: Q01DX009 (ip), vehicle: Klucel (hydroxypropylcellulose) (HPC) 100 % of control | dose: 350.0 mg/kg/injection, schedule: Q01DX009 (ip), vehicle: Klucel (hydroxypropylcellulose) (HPC) 108 % of control

COC(=O)C1(C(=O)OC)CCC=CC1=O
inactive: [1] 107 % of control | [8] 97 % of control | [9] 93 % of control | dose: 200.0 mg/kg/injection, schedule: Q04DX003 (ip), vehicle: saline with Tween-80 101 % of control | [10] 109 % of control | dose: 400.0 mg/kg/injection, schedule: Q04DX003 (ip), vehicle: saline with Tween-80 106 % of control

CCCCC(=O)N/N=C/c1ccc(N(C)C)cc1Cl
inactive: [2] 93 % of control | [3] 93 % of control | [4] 96 % of control

[Cl][Hg][CH2]CC1CC=CCC1 (centres undefined)
inactive: dose: 3.13 mg/kg/injection, schedule: Q01DX009 (ip), vehicle: saline sonified 92 % of control | dose: 6.25 mg/kg/injection, schedule: Q01DX009 (ip), vehicle: saline sonified 94 % of control | dose: 6.25 mg/kg/injection, schedule: Q04DX003 (ip), vehicle: Klucel (hydroxypropylcellulose) (HPC) 98 % of control | dose: 12.5 mg/kg/injection, schedule: Q01DX009 (ip), vehicle: saline sonified 100 % of control | dose: 12.5 mg/kg/injection, schedule: Q04DX003 (ip), vehicle: Klucel (hydroxypropylcellulose) (HPC) 87 % of control
